The structures appear in SMILES notation. Like-named read-outs stand apart in the source and are kept apart here.

What all share (type): cell-based
The test system of assay [1] is mixed cortical cultures from mouse brain. Description: NMDA-induced cell toxicity in mixed cortical (neuronal-glial) cultures, LDH release (Example 1). As for the experimental part: Graph B represents the dose-dependent effect of (−)-huperzine A alone (unfilled circles) and in the presence (filled circles) of 10 μM (−)-nicotine. Toxicity was induced by a 10 minute treatment with 75 μM NMDA in the absence or presence of the indicated drugs.
In a first experiment, four samples each containing neuronal-glial cultures from mouse cerebral cortical cultures and a different concentration of (−)-nicotine (ranging from 0 to 100 μM) were treated for 10 minutes with 75 μM of NMDA (commercially available, for example, from Sigma Chemical Co., St. Louis, Mo.) to induce cell death. The cultures were prepared from 15-day-old fetal Swiss-Webster mice, as described in Bruno et al., 1998 Neuroscience 85:751-7 (hereinafter “Bruno et al.”), incorporated herein by reference. Neuronal cells were plated in 96-well plates on a layer of confluent glial cells at a density of 200,000 cells/well in EMEM medium containing 5% fetal bovine serum and 5% horse serum. Then the NMDA was removed replacing the medium with fresh serum-free culture medium and cell death was assessed for each sample by measuring the amount of lactate dehydrogenase (“LDH”) released into the medium according to the procedure described in Bruno et al. The data are summarized in FIG. 1, Graph A, as lines connecting the values (represented by unfilled squares) of % of NMDA toxicity (i.e., % cell death) at the corresponding concentration of (−)-nicotine in μM.
In a second experiment, six samples each containing neuronal-glial cultures from mouse brain and a different concentration of (−)-huperzine A (ranging from 0 to 10 μM) were treated with 75 μM of NMDA, using the above-described procedure. Then cell death was assessed for each sample using the procedure described above. The data are summarized in FIG. 1, Graph B, as lines connecting the values (represented by unfilled circles) of % of NMDA toxicity at the corresponding concentration of (−)-huperzine A in μM.
In a third experiment, six samples each containing neuronal-glial cultures from mouse brain, a different concentration of (−)-huperzine A (ranging from 0 to 10 μM), and a fixed concentration of 10 μM of (−)-nicotine were treated with 75 μM NMDA, using the procedure described above. Then cell death was assessed for each sample as above. The data are summarized in FIG. 1, Graph B, as lines connecting the values (represented by black-filled circles) of % of NMDA toxicity at the corresponding μM-concentration of(−)-huperzine A.

The subject of assay [2] is cultures of granule neurons prepared from mouse cerebellum. Description: β-amyloid-peptide-induced cell toxicity in cerebellar granule neurons, LDH release (Example 2). As for the experimental part: Toxicity was induced by a 48 hour treatment with 25 μM β-amyloid peptide in the absence or presence of the indicated drugs.
In a first experiment, four samples each containing cultures of granule neurons prepared from mouse cerebellum and a different concentration of (−)-nicotine (ranging from 0 to 100 μM) were treated for 48 hours with 25 μM β-amyloid peptide (“AP”) (commercially available, for example, from Bachem, Inc., Torrance, Calif.) to induce cell death, according to the procedure described in Copani et al., 1995 Mol Pharmacol 47:890-7 (hereinafter “Copani et al.”).
Then cell death was assessed by measuring the amount of LDH released into the medium according to the procedure described in Bruno et al. The data are summarized in FIG. 2, Graph A, as lines connecting the values (represented by unfilled squares) of % of β-amyloid-peptide-induced toxicity (i.e., % cell death) at the corresponding concentration of nicotine in μM.
In a second experiment, four samples each containing cultures of granule neurons prepared from mouse cerebellum and a different concentration of (−)-huperzine A (ranging from 0 to 10 μM), were treated for 48 hours with 25 μM AP, (25-35 fragment) according to the above-described procedure. Then cell death was assessed as described above. The data are summarized in FIG. 2, Graph B, as lines connecting the values (represented by unfilled circles) of % of β-amyloid-peptide-induced toxicity at a particular concentration of (−)-huperzine A in μM.
In a third experiment, 4 samples each containing cultures of granule neurons prepared from mouse cerebellum, a different concentrations of (−)-huperzine A (ranging from 0 to 10 μM), and a fixed concentration of 10 μM of (−)-nicotine were treated for 48 hours with 25 μM AP using the procedure described above. Then cell death was assessed as above. The data are summarized in FIG. 2, Graph B, as lines connecting the values (represented by black-filled circles) of % of β-amyloid-peptide-induced toxicity at a particular μM-concentration of (−)-huperzine A.
On the technique in general: Release of lactate dehydrogenase indicates damage to the cell membrane.

Assay [3] concerns neuronal-glial cultures from mouse cerebral cortical cultures. Description: NMDA-induced cell toxicity in mixed cortical cultures, low drug concentrations, LDH release (Example 3).
The mark [4] stands for this setting: drug alone, 75 μM NMDA for 10 minutes, FIG. 1.
[5] abbreviates: drug alone, nicotine 0-100 μM, huperzine A 0-10 μM.
[6] abbreviates: drug alone, 25 μM β-amyloid peptide for 48 hours, FIG. 2.

Regarding `CN1CCCC1c1cccnc1` (single isomer, unassigned; (-)) [(−)-nicotine], in assay [1], the NMDA-induced cell death entry was “decreased in a dose-dependent manner”, the “cell death (% of NMDA toxicity) at maximal neuroprotection” value is 45%, the “maximal level of neuroprotection” value is recorded as “about 55%” and the neuroprotection entry was “about 40%”. In addition, in assay [2], the “cell death (% of β-amyloid-peptide-induced toxicity) at maximal neuroprotection” value is reported as 45%, the “maximal level of neuroprotection” value was “about 55%”, the neuroprotection result is “about 20%” and the “toxicity induced by 25 μM AP” value was “decreased in a dose-dependent manner”. Also, the neuroprotective effect entry in assay [3] is reported as “little effect”.
As to `C/C=C1\[C@H]2C=C(C)C[C@]1(N)c1ccc(=O)[nH]c1C2` [(−)-huperzine A], in assay [1] (setting [4]), the “cell death (% of NMDA toxicity) at maximal neuroprotection” value was 55% and the “maximal level of neuroprotection” value is recorded as “about 45%”. The NMDA-induced cell death entry in assay [1] (setting [5]) was “decreased in a dose-dependent manner”. In assay [2] (setting [6]), the “cell death (% of β-amyloid-peptide-induced toxicity) at maximal neuroprotection” value is 70% and the “maximal level of neuroprotection” value was “about 30%”. In addition, the “toxicity induced by 25 μM AP” value in assay [2] (setting [5]) was “decreased in a dose-dependent manner”. Moreover, the neuroprotective effect entry in assay [3] ((−)-huperzine A alone, 1-1000 nM, 100 μM NMDA for 10 minutes) is on record as “no significant neuroprotective effects”.

The values above are taken from US6369052B1, “Combination of huperzine and nicotinic compounds as a neuroprotective agent” (Georgetown University, priority 2000, dated 2002).
